The subject of test [1] is E. coli. Put plainly: Evaluation with metal salts forming chelates, colour of colonies. Type of test: cell-based. Here is the method:
(§1) The chromogenic β-D-ribofuranoside substrate was added to Columbia agar at a substrate concentration of 300 mg/l. Ferric ammonium citrate was included at 500 mg/l. All ingredients were autoclaved at 116° C. for 20 minutes to ensure sterilisation. Agar plates were then prepared in 90 mm petri dishes. The substrate caused a yellow colouration of the agar.
(§2) For each strain tested, a bacterial suspension was prepared in sterile deionised water at an inoculum of approximately 1.5×10^8 colony forming units per ml. This was achieved using a densitometer. 1 μl of each bacterial suspension was then inoculated onto each plate using a multipoint inoculator. Strains were inoculated in parallel onto Columbia agar containing ferric ammonium citrate with no substrate (negative control).
(§3) After 18 hours incubation, strains were examined visually for the presence of colour. Any strains producing a black colouration on substrate containing media but not on the negative control plates were deemed to be hydrolysing the substrate.
(§4) The substrate was evaluated using the general method of example 2 but using a range of different metal salts and a culture of E. coli alone. The metal salts shown in Table 5, below, were used at a concentration of 500 mg/l.

For another test, the system named is E. aerogenes. Briefly: Hydrolysis on Columbia agar with ferric ammonium citrate. Type of test: cell-based. The following applies: E. aerogenes; weaker reaction. How it is done:
as §1, §2, §3

For test [2], the system named is E. coli. The description is as above. The following applies: E. coli; weaker reaction. Type of test: cell-based. Here is the method: as §1, §2, §3
Another test concerns K. pneumoniae. The description is as above. Type of test: cell-based. The following applies: K. pneumoniae. How it is done:
as §1, §2, §3

A further test has as its system Shigella sonnei. Described as above. The following applies: S. sonnei. Type of test: cell-based. How it is done:
as §1, §2, §3

Test [3] concerns β-D-ribofuranosidase negative strains. Briefly: Further substrates on agar plates, colony appearance. Type of test: cell-based. Here is the method: as §1, §2, §3
(§5) The same evaluation method as described above in Example 2 was utilised.

In test [4] the test system is β-D-ribofuranosidase positive strains. The description is as above. It counts as cell-based. How it is done: as §1, §2, §3, §5
For test [5], the system named is E. coli. Put plainly: Aluminium salt-containing medium with mixed culture. Type of test: cell-based. The following applies: mixed culture of E. coli and Yersinia enterocolitica. How it is done:
as §4
(§6) When the aluminium salt-containing medium was used with a mixed culture of E. coli and Yersinia enterocolitica, the E. coli colonies were bright yellow and stood out very clearly.

The next test concerns Yersinia enterocolitica. The test is described as above. Type of test: cell-based. The following applies: mixed culture of E. coli and Yersinia enterocolitica. How it is done:
as §4, §6

In the next test the target is AMP nucleosidase (Escherichia coli, UniProt P0AE12). The following applies: N-ribohydrolase from E. coli, AMP nucleosidase (Schramm et al, WO97/31008); cited from earlier work.

Structures can show the parent of a compound that is named as a salt.

This is an account of results in patent US7709223B2, “Method for detecting bacteria with chromogenic substrates for β-D-ribofuranosidase” (priority 2001, dated 2010).

Chain of AMP nucleosidase (P0AE12 whole entry): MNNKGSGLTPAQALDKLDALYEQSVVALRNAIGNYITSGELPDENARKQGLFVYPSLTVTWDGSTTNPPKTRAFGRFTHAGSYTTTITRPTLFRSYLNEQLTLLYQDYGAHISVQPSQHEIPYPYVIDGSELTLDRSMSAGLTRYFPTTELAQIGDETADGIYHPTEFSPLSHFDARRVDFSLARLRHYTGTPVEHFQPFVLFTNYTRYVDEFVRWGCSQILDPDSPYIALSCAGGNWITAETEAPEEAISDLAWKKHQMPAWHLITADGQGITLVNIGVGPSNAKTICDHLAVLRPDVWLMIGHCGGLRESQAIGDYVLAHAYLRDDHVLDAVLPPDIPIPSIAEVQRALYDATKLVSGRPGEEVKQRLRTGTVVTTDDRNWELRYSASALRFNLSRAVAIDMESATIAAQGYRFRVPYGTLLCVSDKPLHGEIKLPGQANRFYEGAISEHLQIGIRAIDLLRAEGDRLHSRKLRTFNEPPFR

Take `COc1c(-c2ccc(O[C@@H]3O[C@H](CO)[C@@H](O)[C@H]3O)c(O)c2)oc2ccccc2c1=O` [Example 6, 3′4′-dihydroxy-3-methoxy-flavone-4′-β-D-ribofuranoside]: the Colour of colonies result is reported as “Diffuse yellow” with E. coli [1] (No metal); “Yellow” in the test with E. coli [1] (metal salt Al 500 mg/l); “Yellow” with E. coli [1] (metal salt Ba 500 mg/l); “Rusty orange” with E. coli [1] (metal salt Bi 500 mg/l); “No growth” with E. coli [1] (metal salt Co 500 mg/l); “Brown” in the test on E. coli [1] (metal salt Fe 500 mg/l). In addition, the Colour of colonies entry was “Pale orange” in the test on E. coli [1] (metal salt Mn 500 mg/l), “Yellow” with E. coli [1] (metal salt Sn 500 mg/l), “Yellow” in the test on E. coli [1] (metal salt Sr 500 mg/l) and “No growth” with E. coli [1] (metal salt Zn 500 mg/l).
Turning to `O=Cc1ccc(OC2OC(CO)C(O)C2O)c(O)c1` [Example 1.4, 3,4-Dihydroxybenzaldehyde-4β-D-ribofuranoside sodium salt], the Colony appearance result is listed as “paler colonies” in the test with E. aerogenes; “paler colonies” with E. coli [2]; “Dark brown colonies” with K. pneumoniae; “Dark brown colonies” in the test with Shigella sonnei; “cream colonies” in test [3].
For the molecule `O=C1/C(=C/c2ccc(OC3OC(CO)C(O)C3O)c(O)c2)Oc2ccccc21` [Example 1.7, 3′,4′-Dihydroxyaurone-4′-β-D-ribofuranoside], the Colony appearance entry in test [4] is on record as “pale brown colonies”.
With “3,4-Dihydroxybenzaldehydesemicarbazone-4-β-D-ribofuranoside [Example 1.5]”, the Colony appearance result in test [3] is reported as “cream colonies”; in [4], “diffuse brown colonies”.
Turning to `COc1c(-c2ccc(O[C@@H]3O[C@H](CO)[C@@H](O)[C@H]3O)c(O)c2)oc2ccccc2c1=O`, the “Colour of E. coli colonies” value in the test with E. coli [5] was “bright yellow”. Further, in the test on Yersinia enterocolitica, the “Colour of Y. enterocolitica colonies” value is on record as “colourless”.
`O=[N+]([O-])c1ccc(O[C@@H]2O[C@H](COP(=O)(O)O)[C@@H](O)[C@H]2O)cc1` [p-Nitrophenyl β-D-ribofuranoside-5-phosphate]: the Activity as substrate result on AMP nucleosidase is “inactive”.
